Drawing on PMC8878317, “Chemogenomics identifies acetyl-coenzyme A synthetase as a target for malaria treatment and prevention” (Cell Chemical Biology, 2022), this text covers EC50 for three compounds.

Type in all cases: cell-based
In one assay the test system is P. falciparum 3D7-A10. As to the kind of experiment: Blood-stage dose-response assay (SYBR Green I, 72 hr), 3D7 / 3D7-A10 parent. Conditions: Plasmodium falciparum. On the procedure: (§1) The 3D7-A10 clone has been used in previous in vitro drug selection and sequencing efforts ([Cowell et al., 2018]). Dd2 parasites were obtained from T. Wellems (NIAID, NIH). Dd2-B2 is a genetically homogeneous line that was cloned from Dd2 by limiting dilution in the Fidock lab. Parasite strains were cultured in 3-5% human O+ hematocrit in RPMI 1640 (Life Technologies) supplemented with 28 mM NaHCO3, 25 mM HEPES, and hypoxanthine ([…]). Depending on the parasite line, the media either contained gentamycin (25 μg/mL), or no antibiotic and was additionally supplemented with 0.5% AlbuMAX II (Life Technologies) and/or O+ human serum (heat inactivated and pooled). Blood and serum products were obtained from Interstate Blood Bank. Cultures were maintained at 37°C in 1.1% O2, 4% CO2, and 95% N2. Parasite populations were synchronized by 5% sorbitol treatment ([Lambros and Vanderberg, 1979]).
(§2) For in vitro–selected lines, drug susceptibility was measured by SYBR Green I–based assay ([Johnson et al., 2007]; [Smilkstein et al., 2004]). Ring-stage parasites were cultured for 72 hr at 1% hematocrit and 1% starting parasitemia in 384-well black clear-bottom plates containing test compounds plated in triplicate in 12-point serial dilutions. Lysis buffer (0.16% w/v saponin, 1.6% Triton X-100, 5 mM EDTA, and 20 mM Tris-HCl, pH 7.4) with SYBR Green I fluorescent dye (Invitrogen) was added, and fluorescence readings were taken (excitation at 494 nm, emission at 530 nm). Alternatively, Dd2-B2 ring-stage cultures at 0.3% parasitemia and 1% hematocrit were exposed for 72 hr to a range of ten drug concentrations that were 2-fold serially diluted in duplicates along with drug-free controls. Parasite survival was assessed by flow cytometry on an Accuri C6 (BD Biosciences) using SYBR Green and MitoTracker Deep Red FM (Life Technologies) as nucleic acid stain and vital dyes respectively. EC50 values were calculated using a nonlinear regression curve fit in Prism Software version 8 (GraphPad).

The subject of the next assay is P. falciparum Dd2-B2. The experiment in a line: Blood-stage dose-response assay (72 hr), Dd2 / Dd2-B2 parent. The note with it: Plasmodium falciparum. The method, then:
as §1, §2

Assay [1] has as its system P. falciparum Dd2:A597V (CRISPR edited PfAcAS). As to the kind of experiment: Blood-stage dose-response assay, CRISPR-edited Dd2:A597V line. Conditions: Plasmodium falciparum, mean ± SD, n bioreplicates. The method, then:
as §2
(§3) Mutant PfAcAS-A597V and PfAcAS-T648M parasites were generated using CRISPR/Cas9. The guide RNAs for PfAcAS-A597V (5′-[…]-3′; 5′-[…]-3′) and for PfAcAS-T648M (5′-[…]-3′) were designed using Benchling (https://benchling.com/) to targeting sites in PfAcAS that were 6-14 bp upstream of the A597 codon and 6 bp downstream of the T648 codon respectively. Complementary oligos encoding the gRNA sequences (5′- tatt[…]-3’ / 5’-aaac[…]-3’; 5’-tatt[…]-3’ / 5’-aaac[…]-3’ and 5’- tattg[…]-3’ / 5’-aaac[…]c-3’ ) were phosphorylated using T4 polynucleotide kinase and annealed (95°C for 5 min, then step down of 5°C/min to 25°C) prior to ligation into the BbsI-digested pDC2-coCas9-U6.2-hDHFR plasmid ([Lim et al., 2016]). The donor template for PfAcAS-A597V was synthesized (ThermoFisher) as a 700 bp Genestring fragment spanning position 1468 to 2168 of the PfAcAS gene, and the donor for PfAcAS-T648M synthesized as a 829 bp fragment spanning position 1468 to 2297 and inserted into the AatII/EcoRI sites of the pDC2-coCas9-gRNA-hDHFR plasmid by Gibson assembly. Ring-stage parasites (Dd2) at 5% parasitemia were transfected by electroporation (BioRad Gene Pulser II at 0.310 kV and 950 μF) with 50 μg of each plasmid (plasmid 1: pDC2-coCas9-AcAS-A597V-gRNA1-hDHFR, plasmid 2: pDC2-coCas9-gRNA2-hDHFR, or plasmid 3: pDC2-coCas9-AcAS-T648M-gRNA1-hDHFR), and parasites selected for 10 days with 2.5 nM WR99210 (Jacobus Pharmaceuticals), followed by removal of drug pressure. After confirmation of editing in the bulk culture, clones were isolated by serial limiting dilution and confirmed by Sanger sequencing after PCR amplification from genomic DNA using forward primer 5′-[…]-3′ and reverse primer 5′-[…]-3′ (for A597V) and 5′-[…]-3′ (for T648M).

The subject of assay [2] is P. falciparum Dd2:T648M (CRISPR edited PfAcAS). As to the kind of experiment: Blood-stage dose-response assay, CRISPR-edited Dd2:T648M line. The note with it: Plasmodium falciparum, mean ± SD, n bioreplicates. The method, then:
as §2, §3

The mark [3] stands for this setting: mean ± SD, n bioreplicates, read-out: 3D7-A10 parent EC50 ± SD.
[4] abbreviates: DD2, read-out: Dd2-B2 parent EC50 ± SD (nM).

Each structure is given as a SMILES string. Like-named read-outs stand apart in the source and are kept apart here.

In the case of `O=C1C(O)=C([C@H]2CC[C@H](c3ccc(Cl)cc3)CC2)C(=O)c2ccccc21` [Atovaquone, reference compound], the EC50 in the assay with P. falciparum 3D7-A10 (setting [3]) came to 0.42 ± 0.05 nM; with P. falciparum Dd2-B2 (setting [4]) it was 0.3 ± 0.13 nM; in assay [1], 0.55 ± 0.35 nM; in assay [2], 0.69 ± 0.38 nM.
Take `CCN(CC)S(=O)(=O)c1ccc(Cl)c(C(=O)Nc2ccc3nc(C)sc3c2)c1` [MMV019721]: the EC50 was found to be 460 ± 100 nM in the assay on P. falciparum 3D7-A10 (blood-stage parasites in vitro, read-out: P. falciparum 3D7 half-maximal effective concentration [EC50]); 400 ± 58 nM in the assay on P. falciparum 3D7-A10 (setting [3]); 400 ± 72 nM in the assay on P. falciparum Dd2-B2 (setting [4]); 400 ± 72 nM in the assay on P. falciparum Dd2-B2 (DD2, read-out: P. falciparum Dd2 EC50); 400 ± 72 nM in the assay with P. falciparum Dd2-B2 (DD2, read-out: mean EC50 (nM) ± SD (n)); 6200 nM in assay [1]. Moreover, in assay [2], the EC50 worked out at 8200 nM.
For `O=C(NNC(=O)c1csnn1)c1ccc(Cl)cc1` [MMV084978], the EC50 in the assay on P. falciparum 3D7-A10 (setting [3]) stood at 110 ± 28 nM; with P. falciparum Dd2-B2 (setting [4]), 150 ± 36 nM; in assay [1], 43000 nM; in assay [2], 12000 nM.
